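Five concentrations, 48 hours, 96-well plates. GI50: concentration for 50% inhibition of growth. TGI: concentration producing complete growth inhibition.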
Assays:
Assay in all cases: NCI-60 cell line screen, 48 h
SK-MEL-2 melanoma = tested on: SK-MEL-2 melanoma
SK-OV-3 ovarian = tested on: SK-OV-3 ovarian
NCI-H460 lung = tested on: NCI-H460 lung
786-0 renal = tested on: 786-0 renal
IGROV1 ovarian = tested on: IGROV1 ovarian
NCI-H226 lung = tested on: NCI-H226 lung
OVCAR-4 ovarian = tested on: OVCAR-4 ovarian
CAKI-1 renal = tested on: CAKI-1 renal
SK-MEL-28 melanoma = tested on: SK-MEL-28 melanoma
BT-549 breast = tested on: BT-549 breast
HOP-62 NSCLC = tested on: HOP-62 NSCLC
UO-31 renal = tested on: UO-31 renal
OVCAR-8 ovarian = tested on: OVCAR-8 ovarian
SK-MEL-5 melanoma = tested on: SK-MEL-5 melanoma
RPMI-8226 leukemia = tested on: RPMI-8226 leukemia
MOLT-4 leukemia = tested on: MOLT-4 leukemia
RXF 393 renal = tested on: RXF 393 renal
COLO 205 colon = tested on: COLO 205 colon
UACC-62 melanoma = tested on: UACC-62 melanoma
HS 578T breast = tested on: HS 578T breast
A498 renal = tested on: A498 renal
M14 melanoma = tested on: M14 melanoma
DU-145 prostate = tested on: DU-145 prostate
K-562 leukemia = tested on: K-562 leukemia
SF-295 CNS = tested on: SF-295 CNS
ACHN renal = tested on: ACHN renal
SF-539 CNS = tested on: SF-539 CNS
NCI/ADR-RES ovarian = tested on: NCI/ADR-RES ovarian
HCT-116 colon = tested on: HCT-116 colon
EKVX NSCLC = tested on: EKVX NSCLC
HCT-15 colon = tested on: HCT-15 colon
NCI-H23 lung = tested on: NCI-H23 lung
UACC-257 melanoma = tested on: UACC-257 melanoma
HOP-92 NSCLC = tested on: HOP-92 NSCLC
HCC-2998 colon = tested on: HCC-2998 colon
MCF7 breast = tested on: MCF7 breast
SN12C renal = tested on: SN12C renal
SW-620 colon = tested on: SW-620 colon
MDA-MB-435 = tested on: MDA-MB-435
TK-10 renal = tested on: TK-10 renal
PC-3 prostate = tested on: PC-3 prostate
MDA-MB-231 breast = tested on: MDA-MB-231 breast
MALME-3M melanoma = tested on: MALME-3M melanoma
NCI-H522 lung = tested on: NCI-H522 lung
SF-268 CNS = tested on: SF-268 CNS
HT29 colon = tested on: HT29 colon
U251 CNS = tested on: U251 CNS
T-47D breast = tested on: T-47D breast
OVCAR-5 ovarian = tested on: OVCAR-5 ovarian

Compound `Cn1c2ccccc2c(=Nc2ccccc2)c2c3ccccc3[nH]c21` has a GI50 (SK-MEL-2 melanoma) of 3780 nM, a TGI (SK-MEL-2 melanoma) greater than 100000 nM and a GI50 (SK-OV-3 ovarian) of 2160 nM. The TGI (SK-OV-3 ovarian) was 5080 nM, the GI50 (NCI-H460 lung) was 410 nM and the TGI (NCI-H460 lung) was 1490 nM. It also gave a GI50 (786-0 renal) of 1330 nM, a TGI (786-0 renal) of 2630 nM and a GI50 (IGROV1 ovarian) of 1640 nM. For the same compound, the TGI (IGROV1 ovarian) was greater than 100000 nM, the GI50 (NCI-H226 lung) was 615 nM and the TGI (NCI-H226 lung) was 2000 nM. For the same compound, the GI50 (OVCAR-4 ovarian) was 5410 nM, the TGI (OVCAR-4 ovarian) was 22000 nM and the GI50 (CAKI-1 renal) was 780 nM. The TGI (CAKI-1 renal) was 2050 nM, the GI50 (SK-MEL-28 melanoma) was 2300 nM and the TGI (SK-MEL-28 melanoma) was 6170 nM. It also gave a GI50 (BT-549 breast) of 3150 nM, a TGI (BT-549 breast) of 7130 nM and a GI50 (HOP-62 NSCLC) of 1140 nM. It also gave a TGI (HOP-62 NSCLC) of 2420 nM, a GI50 (UO-31 renal) of 1930 nM and a TGI (UO-31 renal) greater than 100000 nM. For the same compound, the GI50 (OVCAR-8 ovarian) was 1850 nM, the TGI (OVCAR-8 ovarian) was 10200 nM and the GI50 (SK-MEL-5 melanoma) was 787 nM. For the same compound, the TGI (SK-MEL-5 melanoma) was 2060 nM, the GI50 (RPMI-8226 leukemia) was 1080 nM and the TGI (RPMI-8226 leukemia) was 2560 nM. For the same compound, the GI50 (MOLT-4 leukemia) was 320 nM, the TGI (MOLT-4 leukemia) was 11700 nM and the GI50 (RXF 393 renal) was 1840 nM. It also gave a TGI (RXF 393 renal) of 4050 nM, a GI50 (COLO 205 colon) of 4530 nM and a TGI (COLO 205 colon) of 18800 nM. For the same compound, the GI50 (UACC-62 melanoma) was 696 nM, the TGI (UACC-62 melanoma) was 2010 nM and the GI50 (HS 578T breast) was 1460 nM. The TGI (HS 578T breast) was 4580 nM, the GI50 (A498 renal) was 1340 nM and the TGI (A498 renal) was 3080 nM. It also gave a GI50 (M14 melanoma) of 1650 nM, a TGI (M14 melanoma) of 3020 nM and a GI50 (DU-145 prostate) of 1740 nM. For the same compound, the TGI (DU-145 prostate) was 4360 nM, the GI50 (K-562 leukemia) was 1840 nM and the TGI (K-562 leukemia) was 15700 nM. The GI50 (SF-295 CNS) was 1030 nM, the TGI (SF-295 CNS) was 2220 nM and the GI50 (ACHN renal) was 755 nM. The TGI (ACHN renal) was 1990 nM, the GI50 (SF-539 CNS) was 1170 nM and the TGI (SF-539 CNS) was 2460 nM. For the same compound, the GI50 (NCI/ADR-RES ovarian) was 6750 nM, the TGI (NCI/ADR-RES ovarian) was 61200 nM and the GI50 (HCT-116 colon) was 1260 nM. It also gave a TGI (HCT-116 colon) of 2520 nM, a GI50 (EKVX NSCLC) of 3210 nM and a TGI (EKVX NSCLC) of 8630 nM. For the same compound, the GI50 (HCT-15 colon) was 1510 nM, the TGI (HCT-15 colon) was 3490 nM and the GI50 (NCI-H23 lung) was 2730 nM. It also gave a TGI (NCI-H23 lung) of 20400 nM, a GI50 (UACC-257 melanoma) of 3020 nM and a TGI (UACC-257 melanoma) of 16000 nM. The GI50 (HOP-92 NSCLC) was 942 nM, the TGI (HOP-92 NSCLC) was 2390 nM and the GI50 (HCC-2998 colon) was 3230 nM. The TGI (HCC-2998 colon) was 46400 nM, the GI50 (MCF7 breast) was 284 nM and the TGI (MCF7 breast) was 1860 nM. For the same compound, the GI50 (SN12C renal) was 1240 nM, the TGI (SN12C renal) was 3110 nM and the GI50 (SW-620 colon) was 1090 nM. For the same compound, the TGI (SW-620 colon) was 2900 nM, the GI50 (MDA-MB-435) was 1840 nM and the TGI (MDA-MB-435) was 3320 nM. It also gave a GI50 (TK-10 renal) of 1030 nM, a TGI (TK-10 renal) of 2200 nM and a GI50 (PC-3 prostate) of 1690 nM. For the same compound, the TGI (PC-3 prostate) was 6200 nM, the GI50 (MDA-MB-231 breast) was 1620 nM and the TGI (MDA-MB-231 breast) was 3110 nM. For the same compound, the GI50 (MALME-3M melanoma) was 345 nM, the TGI (MALME-3M melanoma) was 1800 nM and the GI50 (NCI-H522 lung) was 2290 nM. The TGI (NCI-H522 lung) was greater than 100000 nM, the GI50 (SF-268 CNS) was 436 nM and the TGI (SF-268 CNS) was 2370 nM. It also gave a GI50 (HT29 colon) of 2360 nM, a TGI (HT29 colon) greater than 100000 nM and a GI50 (U251 CNS) of 1150 nM. The TGI (U251 CNS) was 2450 nM, the GI50 (T-47D breast) was 3910 nM and the TGI (T-47D breast) was greater than 100000 nM. For the same compound, the GI50 (OVCAR-5 ovarian) was 7600 nM and the TGI (OVCAR-5 ovarian) was 59900 nM.
